Several values for one entry are separate records, joined by “and”; a condition that tells them apart may be missing. Equal entries are not always repeated. Inconclusive results and toxic doses are left out. Peptide text beside a SMILES is read from it. * marks the point of attachment. Bn = c1ccc(C*)cc1; For = O=C*
System: L1210 leukemia ip in BDF1 mice, survival T/C
Test: NCI In Vivo Anticancer Drug Screen. Data for tumor model L1210 Leukemia (intraperitoneal) in B6D2F1 (BDF1) mice
Conditions: endpoint: mean survival time, higher = longer survival
Summary of the method: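 Transplanted-tumor mice were given test agent; controls received vehicle only. Survival readings from the two groups were divided (treated over control).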

[1] = dose: 100.0 mg/kg/injection, schedule: Q01DX001 (ip), vehicle: carboxymethylcellulose (CMC)
[2] = dose: 200.0 mg/kg/injection, schedule: Q01DX001 (ip), vehicle: carboxymethylcellulose (CMC)
[3] = dose: 400.0 mg/kg/injection, schedule: Q01DX001 (ip), vehicle: carboxymethylcellulose (CMC)
[4] = dose: 100.0 mg/kg/injection, schedule: Q01DX009 (ip), vehicle: Klucel (hydroxypropylcellulose) (HPC)
[5] = dose: 200.0 mg/kg/injection, schedule: Q01DX009 (ip), vehicle: Klucel (hydroxypropylcellulose) (HPC)
[6] = dose: 100.0 mg/kg/injection, schedule: Q01DX001 (ip), vehicle: saline
[7] = dose: 200.0 mg/kg/injection, schedule: Q01DX001 (ip), vehicle: saline
[8] = dose: 400.0 mg/kg/injection, schedule: Q01DX001 (ip), vehicle: saline
[9] = dose: 100.0 mg/kg/injection, schedule: Q01DX001 (ip), vehicle: Klucel (hydroxypropylcellulose) (HPC)
[10] = dose: 200.0 mg/kg/injection, schedule: Q01DX001 (ip), vehicle: Klucel (hydroxypropylcellulose) (HPC)
[11] = dose: 400.0 mg/kg/injection, schedule: Q01DX001 (ip), vehicle: Klucel (hydroxypropylcellulose) (HPC)
[12] = dose: 100.0 mg/kg/injection, schedule: Q04DX002 (ip), vehicle: Klucel (hydroxypropylcellulose) (HPC)
[13] = dose: 200.0 mg/kg/injection, schedule: Q04DX002 (ip), vehicle: Klucel (hydroxypropylcellulose) (HPC)
[14] = dose: 400.0 mg/kg/injection, schedule: Q04DX002 (ip), vehicle: Klucel (hydroxypropylcellulose) (HPC)
[15] = dose: 75.0 mg/kg/injection, schedule: Q04DX003 (ip), vehicle: Klucel (hydroxypropylcellulose) (HPC)
[16] = dose: 150.0 mg/kg/injection, schedule: Q04DX003 (ip), vehicle: Klucel (hydroxypropylcellulose) (HPC)

## NC(=O)C1CC=CCC1C(=O)O (centres undefined)
dose: 100.0 mg/kg/injection, schedule: Q01DX009 (ip), vehicle: other
  T/C: 88 % of control
dose: 200.0 mg/kg/injection, schedule: Q01DX009 (ip), vehicle: other
  T/C: 100 % of control
dose: 400.0 mg/kg/injection, schedule: Q01DX009 (ip), vehicle: other
  T/C: 92 % of control

## COc1cc(C=O)cc(I)c1O
dose: 12.5 mg/kg/injection, schedule: Q01DX009 (ip), vehicle: saline with Tween-80
  T/C: 94 % of control
dose: 25.0 mg/kg/injection, schedule: Q01DX009 (ip), vehicle: saline with Tween-80
  T/C: 94 % of control
dose: 50.0 mg/kg/injection, schedule: Q01DX009 (ip), vehicle: saline with Tween-80
  T/C: 91 % of control

## Cc1ccc(S(=O)(=O)N2CCC=Cc3ccccc32)cc1
[1]
  T/C: 110 % of control
[2]
  T/C: 102 % of control
[3]
  T/C: 107 % of control

## CCOc1ccc(-n2cnc3c(=O)[nH]c(N)nc32)cc1
[4]
  T/C: 93 % of control
[5]
  T/C: 91 % of control
dose: 400.0 mg/kg/injection, schedule: Q01DX009 (ip), vehicle: Klucel (hydroxypropylcellulose) (HPC)
  T/C: 91 % of control

## O=C(O)c1cn(C2CCCCC2)c(=O)[nH]c1=O
dose: 25.0 mg/kg/injection, schedule: Q01DX Z (ip), vehicle: methylcellulose (MC)
  T/C: 107 % of control
dose: 50.0 mg/kg/injection, schedule: Q01DX Z (ip), vehicle: methylcellulose (MC)
  T/C: 91 % of control

## O=[N+]([O-])c1ccccc1C/C=C/CCl
[1]
  T/C: 100 % of control
[2]
  T/C: 96 % of control
[3]
  T/C: 94 % of control

## CCOC(=O)C(CC(C)C)NC(=O)C(N)Cc1ccc(N(CCCl)CCCl)cc1 (centres undefined)
dose: 2.5 mg/kg/injection, schedule: Q01DX009 (ip), vehicle: water
  T/C: 116 % of control

## c1cc(-c2ccc(C3=NCCN3)cc2)ccc1C1=NCCN1
dose: 15.0 mg/kg/injection, schedule: Q01DX Z (ip), vehicle: saline
  T/C: 104 % of control
dose: 30.0 mg/kg/injection, schedule: Q01DX Z (ip), vehicle: saline
  T/C: 104 % of control
dose: 60.0 mg/kg/injection, schedule: Q01DX Z (ip), vehicle: saline
  T/C: 87 % of control

## COS(=O)(=O)c1ccc[n+](C)c1
dose: 50.0 mg/kg/injection, schedule: Q01DX001 (ip), vehicle: saline
  T/C: 100 % of control
[6]
  T/C: 105 % of control
[7]
  T/C: 98 % of control
[8]
  T/C: 96 % of control

## CCC(C)C1NC(=O)C(C(C)=O)=C1O.[Cu+2] (centres undefined)
dose: 150.0 mg/kg/injection, schedule: Q01DX001 (ip), vehicle: carboxymethylcellulose (CMC)
  T/C: 105 % of control

## Cc1cc(=O)[nH]c2c(O)cc([N+](=O)[O-])cc12
dose: 50.0 mg/kg/injection, schedule: Q01DX001 (ip), vehicle: Klucel (hydroxypropylcellulose) (HPC)
  T/C: 111 % of control
[9]
  T/C: 100 % of control
[10]
  T/C: 97 % of control

## CCC(C)(O)CC
[6]
  T/C: 97 % of control
[7]
  T/C: 110 % of control
[8]
  T/C: 110 % of control

## CS(=O)(=O)Oc1ccc2c(c1)CCC2
[1]
  T/C: 104 % of control
[2]
  T/C: 101 % of control
[3]
  T/C: 95 % of control

## CN(C)CCCN
[6]
  T/C: 97 % of control
[7]
  T/C: 108 % of control
[8]
  T/C: 95 % of control

## O=NN(CCCl)C(=O)Nc1ccc2[nH]c3ccccc3c2c1
dose: 90.0 mg/kg/injection, schedule: Q01DX009 (ip), vehicle: carboxymethylcellulose (CMC)
  T/C: 120 % of control
dose: 260.0 mg/kg/injection, schedule: Q01DX009 (ip), vehicle: Klucel (hydroxypropylcellulose) (HPC)
  T/C: 108 % of control
dose: 266.0 mg/kg/injection, schedule: Q01DX009 (ip), vehicle: carboxymethylcellulose (CMC)
  T/C: 157 % of control
dose: 520.0 mg/kg/injection, schedule: Q01DX009 (ip), vehicle: Klucel (hydroxypropylcellulose) (HPC)
  T/C: 88 % of control
dose: 600.0 mg/kg/injection, schedule: Q01DX009 (ip), vehicle: carboxymethylcellulose (CMC)
  T/C: 108 % of control

## Cc1ccccc1N=Cc1cccc([N+](=O)[O-])c1
[9]
  T/C: 107 % of control
dose: 100.0 mg/kg/injection, schedule: Q04DX003 (ip), vehicle: Klucel (hydroxypropylcellulose) (HPC)
  T/C: 98 % of control
[10]
  T/C: 107 % of control
dose: 200.0 mg/kg/injection, schedule: Q04DX003 (ip), vehicle: Klucel (hydroxypropylcellulose) (HPC)
  T/C: 101 % of control
[11]
  T/C: 112 % of control
dose: 400.0 mg/kg/injection, schedule: Q04DX003 (ip), vehicle: Klucel (hydroxypropylcellulose) (HPC)
  T/C: 98 % of control

## CCCCCCCCCCCCCCCCOC(=O)Cl
dose: 100.0 mg/kg/injection, schedule: Q01DX001 (ip), vehicle: other
  T/C: 98 % of control
dose: 200.0 mg/kg/injection, schedule: Q01DX001 (ip), vehicle: other
  T/C: 90 % of control
dose: 400.0 mg/kg/injection, schedule: Q01DX001 (ip), vehicle: other
  T/C: 106 % of control

## CC(C)CC(NC(=O)C(Cc1ccc(OCc2ccccc2)cc1)NC=O)C(=O)O (centres undefined) (For-Tyr(Bn)-Leu-OH; configuration not given here)
dose: 100.0 mg/kg/injection, schedule: Q01DX009 (ip), vehicle: saline with Tween-80
  T/C: 98 % of control
dose: 100.0 mg/kg/injection, schedule: Q04DX003 (ip), vehicle: saline with Tween-80
  T/C: 97 % of control
dose: 200.0 mg/kg/injection, schedule: Q01DX009 (ip), vehicle: saline with Tween-80
  T/C: 98 % of control
dose: 200.0 mg/kg/injection, schedule: Q04DX003 (ip), vehicle: saline with Tween-80
  T/C: 97 % of control
dose: 400.0 mg/kg/injection, schedule: Q04DX003 (ip), vehicle: saline with Tween-80
  T/C: 92 % of control

## COc1ccc(CCC(C)=O)cc1OC
[4]
  T/C: 97 % of control
[5]
  T/C: 93 % of control

## O=C(Nc1ccc(C2=NCCN2)cc1)c1ccc(CNc2ccc(C3=NCCN3)cc2)cc1
dose: 0.5 mg/kg/injection, schedule: Q01DX Z (ip), vehicle: water
  T/C: 93 % of control
dose: 1.0 mg/kg/injection, schedule: Q01DX Z (ip), vehicle: water
  T/C: 96 % of control
dose: 2.0 mg/kg/injection, schedule: Q01DX Z (ip), vehicle: water
  T/C: 113 % of control
dose: 4.0 mg/kg/injection, schedule: Q01DX Z (ip), vehicle: water
  T/C: 111 % of control
dose: 6.25 mg/kg/injection, schedule: Q01DX Z (ip), vehicle: water
  T/C: 159 % of control
dose: 12.5 mg/kg/injection, schedule: Q01DX Z (ip), vehicle: water
  T/C: 276 % of control
dose: 25.0 mg/kg/injection, schedule: Q01DX Z (ip), vehicle: water
  T/C: 188 % of control

## O=C1C(=O)c2cccc([N+](=O)[O-])c2-c2c1cccc2[N+](=O)[O-]
[6]
  T/C: 102 % of control
[7]
  T/C: 106 % of control
[8]
  T/C: 102 % of control

## O=C(CBr)c1ccc(Br)cc1
dose: 12.5 mg/kg/injection, schedule: Q01DX009 (ip), vehicle: Klucel (hydroxypropylcellulose) (HPC)
  T/C: 97 % of control
dose: 25.0 mg/kg/injection, schedule: Q01DX009 (ip), vehicle: Klucel (hydroxypropylcellulose) (HPC)
  T/C: 97 % of control
dose: 25.0 mg/kg/injection, schedule: Q04DX002 (ip), vehicle: Klucel (hydroxypropylcellulose) (HPC)
  T/C: 100 % of control
dose: 50.0 mg/kg/injection, schedule: Q01DX009 (ip), vehicle: Klucel (hydroxypropylcellulose) (HPC)
  T/C: 93 % of control
dose: 50.0 mg/kg/injection, schedule: Q04DX002 (ip), vehicle: Klucel (hydroxypropylcellulose) (HPC)
  T/C: 89 % of control
[12]
  T/C: 96 % of control and 107 % of control
[13]
  T/C: 111 % of control
[14]
  T/C: 92 % of control

## COC(=O)c1coc(C(=O)N2CCCC2)c1C(=O)O
[15]
  T/C: 93 % of control
[9]
  T/C: 103 % of control
[16]
  T/C: 105 % of control
[10]
  T/C: 101 % of control
dose: 300.0 mg/kg/injection, schedule: Q04DX003 (ip), vehicle: Klucel (hydroxypropylcellulose) (HPC)
  T/C: 98 % of control
[11]
  T/C: 103 % of control

## O=CNc1ccc2ccccc2c1
dose: 37.5 mg/kg/injection, schedule: Q04DX003 (ip), vehicle: Klucel (hydroxypropylcellulose) (HPC)
  T/C: 92 % of control
[15]
  T/C: 97 % of control
[16]
  T/C: 103 % of control

## O=C(Nc1cccc(Cl)c1)c1ccc(Cl)c(Cl)c1
[12]
  T/C: 110 % of control
[13]
  T/C: 113 % of control
[14]
  T/C: 93 % of control
